The values below come from patent US20240368096A1 (Enanta Pharmaceuticals, Inc., priority 2022, published 2024).

SMILES strings stand for the structures. pEC50: −log10 of the molar value.

In the first test the test system is HBV. Nature of the test: HBV infection in HepG2-NTCP cells (HBeAg AlphaLISA in supernatants). The note with it: HBV infection of HepG2-NTCP cells; HBeAg in supernatants at day 8 post infection; read-out: Cellular EC50. Format: cell-based. The essentials:
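Readout was day-8 supernatant HBeAg by AlphaLISA, with EC50 set against DMSO controls and binned A<0.1 μM, B 0.1-1 μM, C>1 μM. Compounds were added 2 h before HBV (2000 GE/cell, 4% PEG, 0.5% DMSO) to HepG2-NTCP A3 cells; from day 1 medium held 2.5% DMSO.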
(In general: In Alpha technology, singlet oxygen from a donor bead excites a nearby acceptor bead.)
As a reminder, the pEC50 is the EC50 on a negative log10 scale, so that one unit is a factor of ten. For `Cc1ccc(C(=O)O)c(C)c1-c1cc2c(cc1Cl)N(c1ccccc1)C[C@@H](C1CCCCC1)N(C)S2(=O)=O` [Example 147, 3-((3R)-7-chloro-3-cyclohexyl-2-methyl-1,1-dioxido-5-phenyl-2,3,4,5-tetrahydrobenzo[f][1,2,5]thiadiazepin-8-yl)-2,4-dimethylbenzoic acid], the negative logarithm of the EC50 (pEC50) is below 6.00.

Staying with this test, now noted: Hepatitis B virus, 192 h; HBV infection of HepG2-NTCP cells; HBeAg in supernatants at day 8 post infection; read-out: Cellular EC50.
For the compound `CN1[C@H](C2CCCCC2)CN(c2ccccc2)c2cc(Cl)c(-c3cc(F)c(N)c(C(=O)O)c3)cc2S1(=O)=O` [Example 190], the pEC50 was 6.00 to 7.00. On the same count and under the same terms, to `CN1[C@H](C2CCCCC2)CN(c2ccccc2)c2cc(Cl)c(-c3ccc4c(c3)S(=O)(=O)NC4=O)cc2S1(=O)=O` [Example 198] belongs 6.00 to 7.00; to `CN1[C@H](C2CCCCC2)CN(c2ccccc2)c2cc(OCc3cscn3)c(-c3ccc(F)c(C(=O)O)c3)cc2S1(=O)=O` [Example 341], above 7.00; to `CN1[C@H](C2CCCCC2)CN(c2ccccc2)c2cc(Cl)c(-c3cc(C(=O)O)cs3)cc2S1(=O)=O` [Example 129, (R)-5-(7-chloro-3-cyclohexyl-2-methyl-1,1-dioxido-5-phenyl-2,3,4,5-tetrahydrobenzo[f][1,2,5]thiadiazepin-8-yl)thiophene-3-carboxylic acid], 6.00 to 7.00.

For `CC(C)C[C@@H]1CN(c2ccccc2)c2cc(Cl)c(-c3cccc(C(=O)C(=O)O)c3)cc2S(=O)(=O)N1C` [Example 205, (R)-2-(3-(7-chloro-3-isobutyl-2-methyl-1,1-dioxido-5-phenyl-2,3,4,5-tetrahydrobenzo[f][1,2,5]thiadiazepin-8-yl)phenyl)-2-oxoacetic acid], the pEC50 is above 7.00. Same read-out and setting: under `O=C(O)c1cc(-c2cc3c(cc2F)N(c2ccccc2)CC2CC4(CC4)CN2S3(=O)=O)ccc1F` (stereo not drawn) [Example 7] stands 6.00 to 7.00; under `CC(C)CC1CN(c2ccccc2)c2cc(Cl)c(-c3cc(C(=O)O)n(C)n3)cc2S(=O)(=O)N1C` (stereo not drawn) [Example 39], 6.00 to 7.00; under `CCCC[C@@H]1CN(c2ccccc2)c2cc(Oc3ccc(Cl)cc3)c(-c3ccc(F)c(C(=O)O)c3)cc2S(=O)(=O)N1C` [Example 418], above 7.00. Still for that read-out and setting: to `CN1[C@H](C2CCCCC2)CNc2cc(C3CCC3)c(-c3ccc(F)c(C(=O)O)c3)cc2S1(=O)=O` [Example 586] belongs 6.00 to 7.00; to `CCCCCCCC[C@@H]1CN(c2ccccc2)c2cc(Cl)c(-c3ccc(F)c(C(=O)O)c3)cc2S(=O)(=O)N1C` [Example 82, (R)-5-(7-chloro-2-methyl-3-octyl-1,1-dioxido-5-phenyl-2,3,4,5-tetrahydrobenzo[f][1,2,5]thiadiazepin-8-yl)-2-fluorobenzoic acid], below 6.00; to `CN1[C@H](C2CCCCC2)CN(c2ccccc2)c2cc(C#Cc3ccsc3)c(-c3ccc(F)c(C(=O)O)c3)cc2S1(=O)=O` [Example 602, (R)-5-(3-cyclohexyl-2-methyl-1,1-dioxido-5-phenyl-7-(thiophen-3-ylethynyl)-2,3,4,5-tetrahydrobenzo[f][1,2,5]thiadiazepin-8-yl)-2-fluorobenzoic acid], above 7.00. The same measure, in the same setting: under `CC(C)C[C@@H]1CN(C2CC3(CCC3)C2)c2cc(Oc3ccccc3F)c(-c3ccc(F)c(C(=O)O)c3)cc2S(=O)(=O)N1C` [Example 467] stands 6.00 to 7.00. Take `CN1[C@H](C2CCC2)CN(c2ccccc2)c2cc(Cl)c(-c3ccc(O)c(C(=O)O)c3)cc2S1(=O)=O` [Example 159]: the pEC50 was 6.00 to 7.00. Consider `CN1[C@H](C2CCCCC2)CN(c2ccc3c(c2)OC(F)(F)O3)c2cc(Cl)c(-c3ccc(F)c(C(=O)O)c3)cc2S1(=O)=O` [Example 314], for which the pEC50 is above 7.00. For the compound `CN1[C@H](C2CCCCC2)CN(c2ccccc2)c2cc(OCc3ccoc3)c(-c3ccc(F)c(C(=O)O)c3)cc2S1(=O)=O` [Example 333], the pEC50 is above 7.00. The same measure, in the same setting: under `CC(C)C[C@@H]1CN(c2ccccc2)c2cc(OCCN(C)C)c(-c3ccc(F)c(C(=O)O)c3)cc2S(=O)(=O)N1C` [Example 451] stands below 6.00; under `CN1[C@H](C2CCCCC2)CN(c2ccccc2)c2cc(OCCCC3CCN(C(=O)OC(C)(C)C)CC3)c(-c3ccc(F)c(C(=O)O)c3)cc2S1(=O)=O` [Example 368], above 7.00.

Take `CN1[C@H](CN2CCCC(F)(F)C2)CN(c2ccccc2)c2cc(Cl)c(-c3ccc(F)c(C(=O)O)c3)cc2S1(=O)=O` [Example 112]: the pEC50 was below 6.00. On the same count and under the same terms, to `CN1[C@H](C2CCCCC2)CN(c2cc(F)c(F)c(F)c2)c2cc(Cl)c(-c3ccc(F)c(C(=O)O)c3)cc2S1(=O)=O` [Example 298] belongs 6.00 to 7.00; to `CN1[C@H](C2CCC2)CN(c2ccccc2)c2cc(Cl)c(-c3ccc(F)c(C(=O)O)c3)cc2S1(=O)=O` [Example 80, (R)-5-(7-chloro-3-cyclobutyl-2-methyl-1,1-dioxido-5-phenyl-2,3,4,5-tetrahydrobenzo[f][1,2,5]thiadiazepin-8-yl)-2-fluorobenzoic acid], above 7.00; to `CN1[C@H](C2CCCCO2)CN(c2ccccc2)c2cc(Cl)c(-c3ccc(F)c(C(=O)O)c3)cc2S1(=O)=O` (stereo partly drawn) [Example 104, 5-((3S)-7-chloro-2-methyl-1,1-dioxido-5-phenyl-3-(tetrahydro-2H-pyran-2-yl)-2,3,4,5-tetrahydrobenzo[f][1,2,5]thiadiazepin-8-yl)-2-fluorobenzoic acid], 6.00 to 7.00.

As for `CC(C)C[C@@H]1CN(c2ccccc2)c2cc(Cl)c(-c3ccc(Cl)c(C(=O)O)c3)cc2S(=O)(=O)N1C` [Example 60], the pEC50 was above 7.00. Same read-out and setting: to `CC(C)C[C@@H]1CN(c2ccccc2)c2cc(Cl)c(-c3ccc4[nH]ncc4c3)cc2S(=O)(=O)N1C` [Example 181] belongs below 6.00; to `CN1[C@H](C2CCCCC2)CN(c2ccccc2)c2cc(OCc3cncn3C)c(-c3ccc(F)c(C(=O)O)c3)cc2S1(=O)=O` [Example 390], below 6.00. On the same count and under the same terms, to `CN1[C@H](C2CCC2)CN(c2ccccc2)c2cc(Cl)c(-c3cccc(P(=O)(O)O)c3)cc2S1(=O)=O` [Example 234] belongs 6.00 to 7.00; to `CN1[C@H](C2CCC2)CN(c2ccccc2)c2cc(Cl)c(-c3cccc(S(N)(=O)=O)c3)cc2S1(=O)=O` [Example 178], below 6.00; to `COc1cc2c(cc1-c1cccc(C(=O)O)c1)S(=O)(=O)N1Cc3ccccc3C1CN2c1ccccc1` (stereo not drawn) [Example 16], 6.00 to 7.00. The same measure, in the same setting: under `CN1[C@H](C2CCCCC2)CN(c2ccccc2)c2cc(Cl)c(-c3ccc(C(=O)O)c(C(=O)O)c3)cc2S1(=O)=O` [Example 213, (R)-4-(7-chloro-3-cyclohexyl-2-methyl-1,1-dioxido-5-phenyl-2,3,4,5-tetrahydrobenzo[f][1,2,5]thiadiazepin-8-yl)phthalic acid] stands 6.00 to 7.00; under `COCCOc1cc2c(cc1-c1ccc(Cl)c(C(=O)O)c1)S(=O)(=O)N(C)[C@H](CC(C)C)CN2c1ccccc1` [Example 445], 6.00 to 7.00.

Take `Cc1nnc(COc2cc3c(cc2-c2ccc(F)c(C(=O)O)c2)S(=O)(=O)N(C)[C@H](CC(C)C)CN3c2ccccc2)o1` [Example 457]: the pEC50 was 6.00 to 7.00. Same read-out and setting: under `CN1[C@H](c2ccc(F)cc2)CN(c2ccccc2)c2cc(Cl)c(-c3ccc(F)c(C(=O)O)c3)cc2S1(=O)=O` [Example 56] stands 6.00 to 7.00.

Turning to `CCCC[C@@H]1CN(c2ccccc2)c2cc(N(C)C)c(-c3ccc(F)c(C(=O)O)c3)cc2S(=O)(=O)N1C` [Example 524], the pEC50 is above 7.00.

As for `CN1[C@H](C2CCCCC2)CN(c2ccccc2)c2cc(Cl)c(-c3cccc(C(=O)O)c3F)cc2S1(=O)=O` [Example 149, (R)-3-(7-chloro-3-cyclohexyl-2-methyl-1,1-dioxido-5-phenyl-2,3,4,5-tetrahydrobenzo[f][1,2,5]thiadiazepin-8-yl)-2-fluorobenzoic acid], the negative logarithm of the EC50 (pEC50) is above 7.00. Still for that read-out and setting: under `CN1[C@H](C2CCCCC2)CN(c2ccccc2)c2cc(OCCc3ccco3)c(-c3ccc(F)c(C(=O)O)c3)cc2S1(=O)=O` [Example 345] stands above 7.00. Regarding `COCOC[C@@H]1CN(c2ccccc2)c2cc(Cl)c(-c3ccc(F)c(C(=O)O)c3)cc2S(=O)(=O)N1C` [Example 97, (S)-5-(7-chloro-3-((methoxymethoxy)methyl)-2-methyl-1,1-dioxido-5-phenyl-2,3,4,5-tetrahydrobenzo[f][1,2,5]thiadiazepin-8-yl)-2-fluorobenzoic acid], the pEC50 is 6.00 to 7.00.

Regarding `CN1[C@H](C2CCCCC2)CN(c2ccccc2)c2cc(OC3CC(C)(C)C3)c(-c3ccc(F)c(C(=O)O)c3)cc2S1(=O)=O` [Example 375], the negative logarithm of the EC50 (pEC50) is above 7.00.

Take `CN1[C@H](C2CCCCC2)CN(c2ccccc2)c2cc(Cl)c(-c3sc(C(=O)O)cc3F)cc2S1(=O)=O` [Example 119]: the pEC50 was above 7.00. Still for that read-out and setting: to `COCCOc1cc2c(cc1-c1cc(NC(=O)OCC(C)C)c(C(=O)O)s1)S(=O)(=O)N(C)[C@H](C1CCCCC1)CN2c1ccccc1` [Example 516, (R)-5-(3-cyclohexyl-7-(2-methoxyethoxy)-2-methyl-1,1-dioxido-5-phenyl-2,3,4,5-tetrahydrobenzo[f][1,2,5]thiadiazepin-8-yl)-3-((isobutoxycarbonyl)amino)thiophene-2-carboxylic acid] belongs above 7.00. The same measure, in the same setting: to `CN1[C@@H](Cc2ccc(Cl)cc2)CN(c2ccccc2)c2cc(F)c(-c3ccc(F)c(C(=O)O)c3)cc2S1(=O)=O` [Example 2] belongs below 6.00; to `CCCC[C@@H]1CN(c2ccccc2)c2cc(Oc3cccc(OC)c3)c(-c3ccc(F)c(C(=O)O)c3)cc2S(=O)(=O)N1C` [Example 420], 6.00 to 7.00; to `COc1ccc(N2C[C@@H](C3CCCCC3)N(C)S(=O)(=O)c3cc(-c4ccc(F)c(C(=O)O)c4)c(Cl)cc32)cc1` [Example 306, (R)-5-(7-chloro-3-cyclohexyl-5-(4-methoxyphenyl)-2-methyl-1,1-dioxido-2,3,4,5-tetrahydrobenzo[f][1,2,5]thiadiazepin-8-yl)-2-fluorobenzoic acid], 6.00 to 7.00.
